Assay results: patent publication US20240182445A1 (ONO PHARMACEUTICAL CO., LTD., priority 2019, published 2024)
Each block holds one molecule with its values, some of them ahead of it.

Molecular target: T1, human TREK-1 (Homo sapiens, UniProt O95069)
T1 construct: expressed in transfected cells
T1 sequence (O95069 1-426): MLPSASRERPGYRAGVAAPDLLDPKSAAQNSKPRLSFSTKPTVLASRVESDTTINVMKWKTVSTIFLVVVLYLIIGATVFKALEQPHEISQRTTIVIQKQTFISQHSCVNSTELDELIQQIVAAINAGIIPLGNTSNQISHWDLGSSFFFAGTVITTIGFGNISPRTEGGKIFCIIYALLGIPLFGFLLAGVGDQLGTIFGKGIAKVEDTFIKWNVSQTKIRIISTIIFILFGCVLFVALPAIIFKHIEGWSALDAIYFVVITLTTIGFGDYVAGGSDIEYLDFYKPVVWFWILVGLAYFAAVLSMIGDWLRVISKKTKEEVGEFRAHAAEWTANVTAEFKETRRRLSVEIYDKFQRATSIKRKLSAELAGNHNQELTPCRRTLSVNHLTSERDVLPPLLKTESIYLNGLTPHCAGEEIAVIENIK
Test: TREK-1 Thallium (Tl+) flux assay, Method 1
Assay type: cell-based
Conditions: TREK-1 Thallium (Tl+) flux assay; values without footnote *12 are Method 1
In short: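 CHO-K1 cells stably expressing human TREK-1, loaded with Thallos dye, received compound or 0.3% DMSO vehicle for 10 min before thallium stimulus buffer. ΔRatio is fluorescence at 25 s after thallium addition over mean pre-addition fluorescence; % inhibition calculated from it.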

IC50: 0.29 µM
SMILES: Cc1cc(C#Cc2ccccc2)cnc1NC(=O)c1c(Cl)cnn1CCC1CCN(C(=O)C(C)C)CC1 [Compound 188, 4-chloro-1-(2-(1-isobutyrylpiperidin-4-yl)ethyl)-N-(3-methyl-5-(phenylethynyl)pyridin-2-yl)-1H-pyrazole-5-carboxamide]

IC50: 0.29 µM
SMILES: O=C(Nc1ncc(C#Cc2ccccc2)cc1F)c1c(Cl)cnn1-c1ccc2c(c1)OCCO2 [Compound 189, 4-chloro-1-(2,3-dihydrobenzo[b][1,4]dioxin-6-yl)-N-(3-fluoro-5-(phenylethynyl)pyridin-2-yl)-1H-pyrazole-5-carboxamide]

IC50: 0.29 µM
SMILES: CC(C)C(=O)N1CCC(F)(Cn2ncc(Cl)c2C(=O)Nc2ncc(C#Cc3ccccc3)cc2F)CC1 [Compound 190, 4-chloro-1-((4-fluoro-1-isobutyrylpiperidin-4-yl)methyl)-N-(3-fluoro-5-(phenylethynyl)pyridin-2-yl)-1H-pyrazole-5-carboxamide]

IC50: 0.29 µM
SMILES: Cc1cc(C#Cc2ccccc2)cnc1NC(=O)c1c(Cl)cnn1[C@H]1CC[C@H](NC(=O)C(C)C)CC1 [Compound 191, 4-chloro-1-(trans-4-isobutyramidocyclohexyl)-N-(3-methyl-5-(phenylethynyl)pyridin-2-yl)-1H-pyrazole-5-carboxamide]

The next lines start with the molecule.

SMILES: Cc1cc(C#Cc2ccccc2)cc(F)c1NC(=O)c1c(Cl)cnn1C1CCOCC1 [Compound 180, 4-chloro-N-(2-fluoro-6-methyl-4-(phenylethynyl)phenyl)-1-(tetrahydro-2H-pyran-4-yl)-1H-pyrazole-5-carboxamide]
IC50: 0.28 µM

SMILES: Cc1cc(C#Cc2ccc(F)cc2)cnc1NC(=O)c1c(Cl)cnn1C1CCN(C(=O)C(C)(C)C)CC1 [Compound 181, 4-chloro-N-(5-((4-fluorophenyl)ethynyl)-3-methylpyridin-2-yl)-1-(1-pivaloylpiperidin-4-yl)-1H-pyrazole-5-carboxamide]
IC50: 0.28 µM

SMILES: CC(C)C(=O)N1CC2(CC(n3ncc(Cl)c3C(=O)Nc3ncc(C#Cc4ccccc4)cc3F)C2)C1 [Compound 182, 4-chloro-N-(3-fluoro-5-(phenylethynyl)pyridin-2-yl)-1-(2-isobutyryl-2-azaspiro[3.3]heptan-6-yl)-1H-pyrazole-5-carboxamide]
IC50: 0.28 µM

SMILES: Cc1cc(C#Cc2ccccc2)cnc1NC(=O)c1c(Cl)cnn1[C@H]1C[C@H](NC(=O)C(C)C)C1 [Compound 183, 4-chloro-1-(trans-3-isobutyramidocyclobutyl)-N-(3-methyl-5-(phenylethynyl)pyridin-2-yl)-1H-pyrazole-5-carboxamide]
IC50: 0.28 µM

SMILES: Cc1cc(C#Cc2ccccc2)cnc1NC(=O)c1c(Cl)cnn1CC1(C)CCN(C(=O)C2CC2C)CC1 (stereo not drawn) [Compound 184, 4-chloro-1-((4-methyl-1-(2-methylcyclopropane-1-carbonyl)piperidin-4-yl)methyl)-N-(3-methyl-5-(phenylethynyl)pyridin-2-yl)-1H-pyrazole-5-carboxamide]
IC50: 0.28 µM

SMILES: Cc1cc(C#Cc2ccccc2)cc(F)c1NC(=O)c1c(Cl)cnn1CCCC#N [Compound 185, 4-chloro-1-(3-cyanopropyl)-N-(2-fluoro-6-methyl-4-(phenylethynyl)phenyl)-1H-pyrazole-5-carboxamide]
IC50: 0.29 µM

SMILES: Cc1cc(C#Cc2ccccc2)cnc1NC(=O)c1c(Cl)cnn1CC1CCN(C(=O)OC(C)(C)C)CC1 [Compound 186, tert-butyl 4-((4-chloro-5-((3-methyl-5-(phenylethynyl)pyridin-2-yl)carbamoyl)-1H-pyrazol-1-yl)methyl)piperidine-1-carboxylate]
IC50: 0.29 µM

SMILES: Cc1cc(C#Cc2cccs2)cnc1NC(=O)c1c(Cl)cnn1[C@H]1C[C@@H]2CN(C(=O)C(C)C)C[C@@H]2C1 [Compound 187, 4-chloro-1-[(3aR,5s,6aS)-2-(2-methylpropanoyl)octahydrocyclopenta [c]pyrrol-5-yl]-N-{3-methyl-5-[(thiophen-2-yl)ethynyl]pyridin-2-yl}-1H-pyrazole-5-carboxamide]
IC50: 0.29 µM
